Results: ChEMBL document CHEMBL4043180, “Biological evaluation of 2-pyrazolinyl-1-carbothioamide derivatives against HCT116 human colorectal cancer cell lines and elucidation on QSAR and molecular binding modes” (Bioorg Med Chem, 2017)
The source made the active and inactive calls. The calls are words filed in the database; no cut-off is given here.

How the values were obtained:
[1] = molecular target: Tyrosine-protein kinase ABL1 (Homo sapiens) (UniProt P00519); test: Inhibition of Abl1 (unknown origin) at 10 uM
Sequence of Tyrosine-protein kinase ABL1 (Homo sapiens) (P00519 whole entry, the tested form may be a part): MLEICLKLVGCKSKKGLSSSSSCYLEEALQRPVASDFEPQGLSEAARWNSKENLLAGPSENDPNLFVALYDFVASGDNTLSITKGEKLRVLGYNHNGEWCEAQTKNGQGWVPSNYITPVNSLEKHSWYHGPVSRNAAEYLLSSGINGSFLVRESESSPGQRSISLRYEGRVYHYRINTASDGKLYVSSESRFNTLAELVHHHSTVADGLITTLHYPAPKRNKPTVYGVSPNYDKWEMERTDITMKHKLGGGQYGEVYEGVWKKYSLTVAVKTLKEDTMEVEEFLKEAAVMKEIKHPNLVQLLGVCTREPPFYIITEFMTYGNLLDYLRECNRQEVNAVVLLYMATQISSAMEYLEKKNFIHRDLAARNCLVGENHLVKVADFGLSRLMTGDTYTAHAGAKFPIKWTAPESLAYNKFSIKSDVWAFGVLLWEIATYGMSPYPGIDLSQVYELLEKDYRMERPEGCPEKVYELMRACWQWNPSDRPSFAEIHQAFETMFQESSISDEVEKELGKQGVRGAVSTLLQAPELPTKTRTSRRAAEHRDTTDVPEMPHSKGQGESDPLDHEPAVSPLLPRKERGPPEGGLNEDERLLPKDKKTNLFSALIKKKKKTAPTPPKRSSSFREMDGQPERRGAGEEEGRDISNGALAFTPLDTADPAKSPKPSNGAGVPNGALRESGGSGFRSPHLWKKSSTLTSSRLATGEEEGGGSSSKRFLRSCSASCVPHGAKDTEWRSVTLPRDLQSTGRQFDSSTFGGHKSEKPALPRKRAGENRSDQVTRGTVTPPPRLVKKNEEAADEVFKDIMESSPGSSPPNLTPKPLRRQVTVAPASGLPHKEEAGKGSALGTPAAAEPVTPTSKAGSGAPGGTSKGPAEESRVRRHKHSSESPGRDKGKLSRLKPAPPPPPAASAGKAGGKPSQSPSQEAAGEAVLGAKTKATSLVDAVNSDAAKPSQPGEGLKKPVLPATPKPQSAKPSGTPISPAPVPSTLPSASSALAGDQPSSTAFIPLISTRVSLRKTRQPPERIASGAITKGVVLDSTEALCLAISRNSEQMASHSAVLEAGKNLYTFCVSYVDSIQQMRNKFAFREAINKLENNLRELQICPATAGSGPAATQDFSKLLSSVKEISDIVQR

[2] = molecular target: Bcr/Abl fusion protein (Homo sapiens) (UniProt P00519+P11274); test: Inhibition of BCR/ABL Tyr245 phosphorylation in human K562 cells at 20 uM incubated for 6 to 24 hrs; assay type: cell-based
Sequence of Bcr/Abl fusion protein (Homo sapiens) (P00519 whole entry, looked up, the tested form may be a part): as the sequence (P00519 whole entry, the tested form may be a part) above
Sequence of Bcr/Abl fusion protein (Homo sapiens) (P11274 whole entry, looked up, the tested form may be a part): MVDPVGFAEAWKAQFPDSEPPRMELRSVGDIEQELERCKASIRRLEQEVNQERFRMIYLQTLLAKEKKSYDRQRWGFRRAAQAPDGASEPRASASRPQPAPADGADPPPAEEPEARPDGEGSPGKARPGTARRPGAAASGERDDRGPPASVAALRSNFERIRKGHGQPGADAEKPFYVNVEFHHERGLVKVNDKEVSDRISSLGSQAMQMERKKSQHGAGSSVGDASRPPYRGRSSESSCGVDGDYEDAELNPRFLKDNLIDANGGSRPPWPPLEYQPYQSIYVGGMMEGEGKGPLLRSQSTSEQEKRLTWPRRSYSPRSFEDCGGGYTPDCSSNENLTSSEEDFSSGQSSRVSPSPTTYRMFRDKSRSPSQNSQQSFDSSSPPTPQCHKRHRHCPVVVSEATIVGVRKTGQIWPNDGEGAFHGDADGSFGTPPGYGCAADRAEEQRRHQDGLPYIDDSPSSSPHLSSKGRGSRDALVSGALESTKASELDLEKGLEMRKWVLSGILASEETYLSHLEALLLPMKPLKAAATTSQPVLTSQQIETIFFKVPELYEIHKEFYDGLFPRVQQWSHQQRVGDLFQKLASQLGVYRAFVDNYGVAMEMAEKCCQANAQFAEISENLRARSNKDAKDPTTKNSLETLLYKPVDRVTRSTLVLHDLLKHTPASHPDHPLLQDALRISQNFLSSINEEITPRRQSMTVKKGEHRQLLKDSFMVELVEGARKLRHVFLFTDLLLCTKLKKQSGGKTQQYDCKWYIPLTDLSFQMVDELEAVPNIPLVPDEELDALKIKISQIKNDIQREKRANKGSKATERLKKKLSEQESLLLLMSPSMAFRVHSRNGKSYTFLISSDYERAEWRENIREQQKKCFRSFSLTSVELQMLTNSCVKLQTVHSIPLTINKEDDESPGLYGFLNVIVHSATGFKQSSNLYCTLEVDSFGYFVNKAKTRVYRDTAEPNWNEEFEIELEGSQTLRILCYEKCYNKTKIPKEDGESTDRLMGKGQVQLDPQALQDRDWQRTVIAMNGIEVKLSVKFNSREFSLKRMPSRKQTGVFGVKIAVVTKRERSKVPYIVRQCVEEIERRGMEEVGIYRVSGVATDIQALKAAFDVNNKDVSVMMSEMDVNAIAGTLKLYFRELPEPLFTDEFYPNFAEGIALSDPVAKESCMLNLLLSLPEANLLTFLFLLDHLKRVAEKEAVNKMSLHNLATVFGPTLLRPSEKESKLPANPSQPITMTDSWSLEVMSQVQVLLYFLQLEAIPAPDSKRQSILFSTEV

inhibition [1]: 93% | inhibition [2]: Active
SMILES: COc1cc(O)c(C2=NN(C(=S)Nc3cc(OC)c(OC)c(OC)c3)C(c3cccc4ccccc34)C2)cc1OC (configuration not stated)
